Here are results for six molecules from ChEMBL document CHEMBL4725457, “Novel Bicyclic Heteroaryl Compounds as γ-Secretase Modulators for Treating Alzheimer's Disease” (ACS Med Chem Lett, 2020).

The target in the assay is Gamma-secretase. In words: Inhibition of human gamma secretase assessed as reduction in Abeta42 production. It counts as protein-complex assay.
A word on the IC50: it is the concentration that gives 50% inhibition. In the case of `Cc1cc(N2C[C@H]3CC[C@@H](C2)[C@@H]3Nc2nc3n(n2)CCC[C@H]3Oc2ccc(Cl)cc2)ncn1`, the IC50 is 10.3 nM.
Take `COc1cc(N2C[C@H]3CC[C@@H](C2)[C@@H]3Nc2nc3n(n2)CC[C@H]3Oc2cc(F)cc(Cl)c2)cnn1`: the half-inhibitory concentration (IC50) is 8.1 nM.
On to `COc1cc(N2C[C@H]3CC[C@@H](C2)[C@@H]3Nc2nc3n(n2)CCC[C@H]3Oc2cc(F)cc(Cl)c2)cnn1`, for which the IC50 was found to be 6.3 nM.
The result for `Cc1cc(N2C[C@H]3CC[C@@H](C2)[C@@H]3Nc2nc3n(n2)CCC[C@H]3Oc2cc(Cl)cc(Cl)c2)ncn1` reads 6.6 nM.
The result for `Cc1cc(N2C[C@H]3CC[C@@H](C2)[C@@H]3Nc2nc3n(n2)CCC[C@H]3Oc2cccc(Cl)c2)ncn1` reads 9.9 nM; that for `Cc1cc(N2C[C@H]3CC[C@@H](C2)[C@@H]3Nc2nc3n(n2)CCC[C@H]3Oc2cc(F)cc(Cl)c2)ncn1`, 8.1 nM.
